# Reference: patent publication US9610236B2, “Cosmetic use of Queuine” (AMABIOTICS, priority 2013, dated 2017)
# Entries after “also recorded” stand apart in the source; their conditions may differ.
# Experiments:
# Format in all cases: cell-based
# [1] = tested on: HDFa, adult human dermal fibroblasts; experiment: Cytotoxicity / cell viability, MTT assay; conditions: for Mean - blank (cell viability OD) / OD mean values (cell viability) / Mean OD values (cell viability): MTT; for OD mean values (cell viability) / Mean OD values (cell viability): OD 570 nm; for OD mean values (cell viability): DMEM 2.5% FCS
# Description: (§1) The stock solution of queuine was prepared with 15 mg/ml methanol and the dilutions were obtained in DMEM (Dulbecco's Modified […]) in the presence of variable concentrations of foetal calf serum (FCS) (DMEM+2.5% FCS+antibiotics (penicillin/streptomycin)+glutamine): depleted medium with 2.5% FCS for the viability, proliferation and cell migration experiments.
# The dilution range prepared for the toxicity/viability assay was the following:
# (§2) Cell type: HDFa, adult human dermal fibroblasts, person, used between passage 4 and passage 6.
# (§3) The adult HDFs used were seeded to a proportion of 5×10^3 cells/well in 96-well plates (passage 4) in 200 μl culture medium without FCS (supplemented DMEM+0% FCS). 24 h after seeding, the culture medium was changed and the different dilutions of the product or its carrier (methanol) were added at 200 μl per well, with 3 wells per culture condition.
# Cell proliferation was evaluated using a colorimetric assay (MTT assay) after culture times of 1, 2 and 3 days. This assay is based on reduction of the yellow tetrazolium salt (MTT) [3-(4,5-dimethylthiazol bromide] to a blue-purple formazan product by the mitochondrial NADPH reductases of the cells, provided they are living. The crystals were then dissolved in 100% ethanol—DMSO mixture (v/v). Colouring of the supernatant, proportional to the number of living cells, was measured by optical density (OD) read-out on a spectrophotometer at a wavelength of 570 nm. The assay was conducted at D1, D2 and D3 (D0 corresponding to the time of addition of the solutions to be assayed).
# The mean OD values of the triplicates are given on a graph for each kinetic time. Standard deviations are indicated.
# [2] = tested on: HDFa, adult human dermal fibroblasts; experiment: Cell migration into calibrated acellular gap (culture inserts, image comparison); conditions: 24 h
# Description: The dilution range prepared for evaluating migration was identical to the range for evaluating kinetics with the exclusion of the 0.3 μg/ml concentration. The adult HDFs used were seeded in the presence of previously sterilised culture inserts which allowed the creation of calibrated acellular regions. 100,000 HDFa in 600 μl and 30,000 cells in 150 μl were respectively added outside and inside the inserts, in DMEM+2.5% FCS. After an incubation time of 5 h at 37° C., the inserts were removed and the wells washed twice with PBS 1× to eliminate every cell which had not adhered. The queuine molecule was then added at 30, 10, 3 or 1 μg/ml in DMEM 2.5% FCS, and an equivalent range of methanol was also carried out, two wells per condition. The wells were photographed at t=0 h and the plates then incubated for 24 h. The cells were fixed with paraformaldehyde before taking photos at 24 h. The images were analysed using ImageJ software, to improve the contrast thereof. All fields were examined and the two most representative of each condition were chosen for each time indication. Analysis was performed by comparison with the control. The adult HDFs were seeded in the presence of previously sterilised culture inserts, to create calibrated acellular regions in a confluent cell mat. The cells tend to fill the gap created by migrating from the edges to close the gap. After 5 h incubation at 37° C., the inserts were removed and the wells washed twice in PBS 1× to eliminate every non-adhering cell. Queuine was then added at 30, 10, 3 or 1 μg/ml in DMEM 2.5% FCS and an equivalent range of methanol was also prepared, two wells per condition. Photos of the wells were taken at t=0 h. The cells were cultured 24 h at 37° C., before being fixed in paraformaldehyde. Photos were taken at t=24 h. The photos were compared with each other to assess the difference in cell migration into the gap between the different assayed conditions.
# [3] = tested on: HDFa, adult human dermal fibroblasts; experiment: Cell proliferation, BrdU assay; conditions: for Mean ODs (BrdU cell proliferation): OD 450 nm
# Description: as §1
# This first assay allowed fine-tuning of the applied concentration range. The dilution range for the assay of cell proliferation kinetics was as follows:
# as §2, §3
# Cell proliferation was evaluated using an assay of ELISA type (BrdU assay, Bromodeoxyuridine) after 1, 2 and 3 days of culture.
# BrdU is a synthetic nucleoside and an analogue of thymidine, which can be recognised by an anti-BrdU antibody. It is incorporated during DNA replication of the proliferating cells. The anti-BrdU antibody is coupled to an enzyme which, in the presence of its substrate, will degrade the latter. Detection of BrdU is therefore carried out by colorimetric enzymatic assay.
# Degradation of the enzyme substrate will stain the supernatant proportional to the amount of incorporated BrdU. Measurement is then performed by read-out of optical density (OD) using a spectrophotometer at a wavelength of 450 nm. The assay was conducted at D1, D2 and D3 (D0 corresponding to the time of addition of the solutions to be assayed).
smiles,measurement,setting,value
"Nc1nc2[nH]cc(CN[C@H]3C=C[C@H](O)[C@@H]3O)c2c(=O)[nH]1 [Queuine, 2-amino-5-((((1s,4s,5r)-4,5-dihydroxy-2-cyclopenten-1-yl)amino)methyl)-1,7-dihydro-4h-pyrrolo(2,3-d)pyrimidin-4-one]",Mean - blank (cell viability OD),"[1]; 0.1 μg/ml, 24 h contact time",0.133
same,OD mean values (cell viability),"[1]; 0.1 μg/ml, 24 h contact time",0.228
same,Mean - blank (cell viability OD),"[1]; 0.1 μg/ml, 48 h contact time",0.219
same,Mean OD values (cell viability),"[1]; 0.1 μg/ml, 48 h contact time",0.304
same,Mean - blank (cell viability OD),"[1]; 0.1 μg/ml, 72 h contact time",0.223
same,Mean OD values (cell viability),"[1]; 0.1 μg/ml, 72 h contact time",0.341
same,Mean - blank (cell viability OD),"[1]; 1 μg/ml, 24 h contact time",0.155
same,OD mean values (cell viability),"[1]; 1 μg/ml, 24 h contact time",0.250
same,Mean - blank (cell viability OD),"[1]; 1 μg/ml, 48 h contact time",0.246
same,Mean OD values (cell viability),"[1]; 1 μg/ml, 48 h contact time",0.331
same,Mean - blank (cell viability OD),"[1]; 1 μg/ml, 72 h contact time",0.244
same,Mean OD values (cell viability),"[1]; 1 μg/ml, 72 h contact time",0.362
same,Mean - blank (cell viability OD),"[1]; 10 μg/ml, 24 h contact time",0.151
same,OD mean values (cell viability),"[1]; 10 μg/ml, 24 h contact time",0.246
same,Mean - blank (cell viability OD),"[1]; 10 μg/ml, 48 h contact time",0.243
same,Mean OD values (cell viability),"[1]; 10 μg/ml, 48 h contact time",0.328
same,Mean - blank (cell viability OD),"[1]; 10 μg/ml, 72 h contact time",0.277
same,Mean OD values (cell viability),"[1]; 10 μg/ml, 72 h contact time",0.395
same,Mean - blank (cell viability OD),"[1]; 100 μg/ml, 24 h contact time",0.138
same,OD mean values (cell viability),"[1]; 100 μg/ml, 24 h contact time",0.233
same,Mean - blank (cell viability OD),"[1]; 100 μg/ml, 48 h contact time",0.188
same,Mean OD values (cell viability),"[1]; 100 μg/ml, 48 h contact time",0.273
same,Mean - blank (cell viability OD),"[1]; 100 μg/ml, 72 h contact time",0.154
same,Mean OD values (cell viability),"[1]; 100 μg/ml, 72 h contact time",0.272
same,cytotoxic effect,"[1]; 100 μg/ml, at 48 h",exhibited a cytotoxic effect
same,cytotoxic effect,[1]; concentrations below 100 μg/ml,do not exhibit any cytotoxic effect; also recorded: did not display any cytotoxic effect
same,migration compared with 2.5% FCS control,[2]; 10 μg/ml and 30 μg/ml in 2.5% FCS,better migration than in 2.5% FCS
same,effect on migration of the fibroblasts,[2]; 10 μg/ml,has an effect on migration of the fibroblasts; also recorded: has an effect on the migration of adult HDFs
same,gap closure (observation of photos),[2]; 30 μg/ml in 2.5% FCS,the cells of the two edges meet in the centre of the gap
same,effect on migration of the fibroblasts,[2]; 30 μg/ml,confirmed
same,migration compared with positive 10% FCS control,[2]; 10 and 30 μg/ml,equivalent to that obtained with the positive 10% FCS control
same,Mean - blank (BrdU OD),"[3]; 0.3 μg/ml, 24 h contact time",1.181
same,Mean ODs (BrdU cell proliferation),"[3]; 0.3 μg/ml, 24 h contact time, DMEM 2.5% FCS",1.312
same,Mean - blank (BrdU OD),"[3]; 0.3 μg/ml, 48 h contact time",0.677
same,Mean ODs (BrdU cell proliferation),"[3]; 0.3 μg/ml, 48 h contact time, shortened substrate incubation",0.800
same,Mean - blank (BrdU OD),"[3]; 0.3 μg/ml, 72 h contact time",0.416
same,Mean ODs (BrdU cell proliferation),"[3]; 0.3 μg/ml, 72 h contact time, shortened substrate incubation",0.586
same,Mean - blank (BrdU OD),"[3]; 1 μg/ml, 24 h contact time",1.197
same,Mean ODs (BrdU cell proliferation),"[3]; 1 μg/ml, 24 h contact time, DMEM 2.5% FCS",1.328
same,Mean - blank (BrdU OD),"[3]; 1 μg/ml, 48 h contact time",0.803
same,Mean ODs (BrdU cell proliferation),"[3]; 1 μg/ml, 48 h contact time, shortened substrate incubation",0.926
same,Mean - blank (BrdU OD),"[3]; 1 μg/ml, 72 h contact time",0.378
same,Mean ODs (BrdU cell proliferation),"[3]; 1 μg/ml, 72 h contact time, shortened substrate incubation",0.548
same,Mean - blank (BrdU OD),"[3]; 3 μg/ml, 24 h contact time",.391
same,Mean ODs (BrdU cell proliferation),"[3]; 3 μg/ml, 24 h contact time, DMEM 2.5% FCS",1.522
same,Mean - blank (BrdU OD),"[3]; 3 μg/ml, 48 h contact time",0.793
same,Mean ODs (BrdU cell proliferation),"[3]; 3 μg/ml, 48 h contact time, shortened substrate incubation",0.915
same,Mean - blank (BrdU OD),"[3]; 3 μg/ml, 72 h contact time",0.511
same,Mean ODs (BrdU cell proliferation),"[3]; 3 μg/ml, 72 h contact time, shortened substrate incubation",0.681
same,Mean - blank (BrdU OD),"[3]; 10 μg/ml, 24 h contact time",1.494
same,Mean ODs (BrdU cell proliferation),"[3]; 10 μg/ml, 24 h contact time, DMEM 2.5% FCS",1.625
same,Mean - blank (BrdU OD),"[3]; 10 μg/ml, 48 h contact time",0.943
same,Mean ODs (BrdU cell proliferation),"[3]; 10 μg/ml, 48 h contact time, shortened substrate incubation",1.066
same,Mean - blank (BrdU OD),"[3]; 10 μg/ml, 72 h contact time",0.538
same,Mean ODs (BrdU cell proliferation),"[3]; 10 μg/ml, 72 h contact time, shortened substrate incubation",0.708
same,Mean - blank (BrdU OD),"[3]; 30 μg/ml, 24 h contact time",1.502
same,Mean ODs (BrdU cell proliferation),"[3]; 30 μg/ml, 24 h contact time, DMEM 2.5% FCS",1.634
same,Mean - blank (BrdU OD),"[3]; 30 μg/ml, 48 h contact time",1.026
same,Mean ODs (BrdU cell proliferation),"[3]; 30 μg/ml, 48 h contact time, shortened substrate incubation",1.149
same,Mean - blank (BrdU OD),"[3]; 30 μg/ml, 72 h contact time",0.787
same,Mean ODs (BrdU cell proliferation),"[3]; 30 μg/ml, 72 h contact time, shortened substrate incubation",0.958
same,proliferative effect,"[3]; 3, 10 and 30 μg/ml after 72 hours' incubation",a proliferative effect is evidenced
same,proliferative effect,"[3]; 72 hours, 30 μg/ml",particularly pronounced; also recorded: major proliferative effect
same,proliferative effect,"[3]; 72 hours, 3 and 10 μg/ml",clear proliferative effect
same,proliferative effect compared with the carrier,[3]; short times (24 and 48 hours),no significant effect
